IC50 data for 23 compounds are collected here from patent US10385069B2, “Imidazo[2,1-B]thiazole and 5,6-dihydroimidazo[2,1-B]thiazole derivatives useful as S100-inhibitors” (Active Biotech AB, priority 2015, dated 2019).

In the test the target is T1, interaction between biotinylated human S100A9 and human RAGE-Fc (Homo sapiens, UniProt P06702).
T1 construct: made in house; host or cells: E. coli
T1 sequence (P06702 1-114): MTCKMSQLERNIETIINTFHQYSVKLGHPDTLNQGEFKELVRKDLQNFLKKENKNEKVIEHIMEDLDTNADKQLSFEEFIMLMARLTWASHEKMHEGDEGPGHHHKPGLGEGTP
As to the kind of experiment: AlphaScreen inhibition assay, biot-hS100A9:hRAGE-Fc. Type of test: binding. The note with it: biot-hS100A9 pre-incubated with compound 1 h, assay buffer with CaCl2 and ZnCl2. Summed up:
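Biotinylated human S100A9, preincubated with compound, binds human RAGE-Fc on protein A Acceptor beads in HBS-P with CaCl2 and ZnCl2; streptavidin Donor beads added, AlphaScreen signal read. Protein levels set by cross-titration; beads 20 μg/mL final. Percent inhibition versus DMSO control; IC50 from varied compound concentrations.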
For orientation: Alpha assays give light when donor and acceptor beads are brought close together.

Each structure is given as a SMILES string.

As to `CC1(C)Cc2c(sc3nc(C(=O)O)c(C4CC4)n23)C(C)(C)C1` [Example 258, 3-Cyclopropyl-9,9,11,11-tetramethyl-7-thia-2,5-diazatricyclo[6.4.0.0^2,6]dodeca-1(8),3,5-triene-4-carboxylic acid], the IC50 was determined as 510 nM. The value for `O=C(O)c1cn2c(n1)sc1c(Cl)c(Cl)c(OCCN3CCOCC3)cc12` [Example 261, 9,10-Dichloro-11-[2-(morpholin-4-yl)ethoxy]-7-thia-2,5-diazatricyclo[6.4.0.0^2,6]dodeca-1(8),3,5,9,11-pentaene-4-carboxylic acid] was 550 nM.

As to `O=C(O)C1(Cc2ccccc2)CN2C(=N1)Sc1c2ccc(F)c1Cl` (centres unmarked) [Example 262, 4-Benzyl-9-chloro-10-fluoro-7-thia-2,5-diazatricyclo[6.4.0.0^2,6]dodeca-1(8),5,9,11-tetraene-4-carboxylic acid], the IC50 stood at 770 nM.

As for `O=C(O)C1(CO)CN2C(=N1)Sc1c2ccc(F)c1Cl` (centres unmarked) [Example 263, 9-Chloro-10-fluoro-4-(hydroxymethyl)-7-thia-2,5-diazatricyclo[6.4.0.0^2,6]dodeca-1(8),5,9,11-tetraene-4-carboxylic acid], the half-maximal inhibitory concentration (IC50) stood at 1060 nM. To `O=C(O)c1cn2c(n1)sc1c(Cl)c(N3CC(F)(F)C3)ccc12` [Example 266, 9-Chloro-10-(3,3-difluoroazetidin-1-yl)-7-thia-2,5-diazatricyclo[6.4.0.0^2,6]dodeca-1(8),3,5,9,11-pentaene-4-carboxylic acid] belongs 950 nM. The value for `COCCN1CCN(Cc2c(C(=O)O)nc3sc4c(n23)CCC(C(C)(C)C)C4)CC1` (centres unmarked) [Example 272, 10-tert-Butyl-3-{[4-(2-methoxyethyl)piperazin-1-yl]methyl}-7-thia-2,5-diazatricyclo[6.4.0.0^2,6]dodeca-1(8),3,5-triene-4-carboxylic acid] was 1770 nM; that for `CN1CCN(Cc2c(C(=O)O)nc3sc4c(n23)CCC(C(C)(C)C)C4)CC1` (centres unmarked) [Example 273, 10-tert-Butyl-3-[(4-methylpiperazin-1-yl)methyl]-7-thia-2,5-diazatricyclo[6.4.0.0^2,6]dodeca-1(8),3,5-triene-4-carboxylic acid] was 1490 nM. On to `CC(=O)N1CCN(Cc2c(C(=O)O)nc3sc4c(n23)CCC(C(C)(C)C)C4)CC1` (centres unmarked) [Example 275, 3-[(4-Acetylpiperazin-1-yl)methyl]-10-tert-butyl-7-thia-2,5-diazatricyclo[6.4.0.0^2,6]dodeca-1(8),3,5-triene-4-carboxylic acid], for which the IC50 came to 1090 nM. To `CN1CCN(c2c(C(=O)O)nc3sc4c(Cl)c(F)ccc4n23)CC1` [Example 276, 9-Chloro-10-fluoro-3-(4-methylpiperazin-1-yl)-7-thia-2,5-diazatricyclo[6.4.0.0^2,6]dodeca-1(8),3,5,9,11-pentaene-4-carboxylic acid] belongs 390 nM; to `O=C(O)c1nc2sc3c(Cl)c(F)ccc3n2c1NCCN1CCCC1` [Example 277, 9-Chloro-10-fluoro-3-{[2-(pyrrolidin-1-yl)ethyl]amino}-7-thia-2,5-diazatricyclo[6.4.0.0^2,6]dodeca-1(8),3,5,9,11-pentaene-4-carboxylic acid], 1050 nM. As for `O=C(NS(=O)(=O)c1ccccc1)C1CN2C(=N1)Sc1c2ccc(F)c1Cl` (centres unmarked) [Example 278, N-(Benzenesulfonyl)-9-chloro-10-fluoro-7-thia-2,5-diazatricyclo[6.4.0.0^2,6]dodeca-1(8),5,9,11-tetraene-4-carboxamide], the IC50 was found to be 170 nM. As for `CN(C)c1c(C(=O)O)nc2sc3c(n12)CC(C)(C)CC3(C)C` [Example 280, 3-(Dimethylamino)-9,9,11,11-tetramethyl-7-thia-2,5-diazatricyclo[6.4.0.0^2,6]dodeca-1(8),3,5-triene-4-carboxylic acid], the IC50 was 420 nM.

As for `O=C(O)c1nc2sc3c(Cl)c(F)ccc3n2c1C1CNC1` [Example 281, 3-(Azetidin-3-yl)-9-chloro-10-fluoro-7-thia-2,5-diazatricyclo[6.4.0.0^2,6]dodeca-1(8),3,5,9,11-pentaene-4-carboxylic acid], the IC50 worked out at 1800 nM. Consider `CC(=O)N1CCN(c2c(C(=O)O)nc3sc4c(n23)CC(C)(C)CC4(C)C)CC1` [Example 284, 3-(4-Acetylpiperazin-1-yl)-9,9,11,11-tetramethyl-7-thia-2,5-diazatricyclo[6.4.0.0^2,6]dodeca-1(8),3,5-triene-4-carboxylic acid], for which the IC50 is 700 nM. With `O=C(O)C1CN2C(=N1)Sc1c2cc(OCCN2CCOCC2)c(Cl)c1Cl` (centres unmarked) [Example 285, 9,10-Dichloro-11-[2-(morpholin-4-yl)ethoxy]-7-thia-2,5-diazatricyclo[6.4.0.0^2,6]dodeca-1(8),5,9,11-tetraene-4-carboxylic acid], the concentration for half-maximal inhibition (IC50) came out at 1270 nM. To `C=C(C)c1c(C(=O)O)nc2sc3c(n12)CC(C)(C)CC3(C)C` [Example 287, 9,9,11,11-Tetramethyl-3-(prop-1-en-2-yl)-7-thia-2,5-diazatricyclo[6.4.0.0^2,6]dodeca-1(8),3,5-triene-4-carboxylic acid] belongs 760 nM.

With `CN1CCN(c2c(C(=O)O)nc3sc4c(n23)CC(C)(C)CC4(C)C)CC1` [Example 288, 9,9,11,11-Tetramethyl-3-(4-methylpiperazin-1-yl)-7-thia-2,5-diazatricyclo[6.4.0.0^2,6]dodeca-1(8),3,5-triene-4-carboxylic acid], the IC50 worked out at 1060 nM. To `O=C(O)c1cn2c(n1)sc1c(F)c(Cl)c(OCCN3CCOCC3)cc12` [Example 289, 10-Chloro-9-fluoro-11-[2-(morpholin-4-yl)ethoxy]-7-thia-2,5-diazatricyclo[6.4.0.0^2,6]dodeca-1(8),3,5,9,11-pentaene-4-carboxylic acid] belongs 820 nM; to `CN1CC(c2c(C(=O)O)nc3sc4c(Cl)c(F)ccc4n23)C1` [Example 290, 9-Chloro-10-fluoro-3-(1-methylazetidin-3-yl)-7-thia-2,5-diazatricyclo[6.4.0.0^2,6]dodeca-1(8),3,5,9,11-pentaene-4-carboxylic acid], 940 nM. As to `O=C(O)c1nc2sc3c(Cl)c(F)ccc3n2c1C1CC1` [Example 291, 9-Chloro-3-cyclopropyl-10-fluoro-7-thia-2,5-diazatricyclo[6.4.0.0^2,6]dodeca-1(8),3,5,9,11-pentaene-4-carboxylic acid], the IC50 was 100 nM. Consider `CSc1c(C(=O)O)nc2sc3c(n12)CC(C)(C)CC3(C)C` [Example 292, 9,9,11,11-Tetramethyl-3-(methylsulfanyl)-7-thia-2,5-diazatricyclo[6.4.0.0^2,6]dodeca-1(8),3,5-triene-4-carboxylic acid], for which the IC50 amounted to 290 nM.

As to `CS(=O)(=O)N1CC(c2c(C(=O)O)nc3sc4c(Cl)c(F)ccc4n23)C1` [Example 293, 9-Chloro-10-fluoro-3-(1-methanesulfonylazetidin-3-yl)-7-thia-2,5-diazatricyclo[6.4.0.0^2,6]dodeca-1(8),3,5,9,11-pentaene-4-carboxylic acid], the IC50 came out at 500 nM.

For the compound `CC1(C(=O)NS(C)(=O)=O)CN2C(=N1)Sc1c2ccc(F)c1Cl` (centres unmarked) [Example 294, 9-Chloro-10-fluoro-N-methanesulfonyl-4-methyl-7-thia-2,5-diazatricyclo[6.4.0.0^2,6]dodeca-1(8),5,9,11-tetraene-4-carboxamide], the IC50 turned out to be 780 nM.

In general, IC50 refers to the concentration needed to halve the response being measured.
